In US20110212053A1, “PHOSPHATIDYLINOSITOL 3 KINASE INHIBITORS” (priority 2008, published 2011):

Legend:
TRKC = TRKC (Homo sapiens, UniProt Q16288); experiment: Radiometric HotSpot kinase assay, TRKC; assay type: biochemical; settings: 1 μM compound, 10 μM ATP
Experimental: (§1) Kinase Profiling: The inhibitory activity of the PI3K inhibitor compounds of the invention against 250 protein kinases was determined via the radiometric HotSpot Kinase Profiling (Reaction Biology Corporation, Malvern, Pa.). Compounds were profiled at a final concentration of 1 μM compound against recombinant protein kinases in the presence of 10 μM ATP and data were expressed as percent inhibition. IC50 and/or percent inhibition at 1 μM compound values were determined for select compounds against a subset of kinases (MELK, MNK1, MNK2, mTOR, PIM-1. TRKC, and PDGFRα(D842V)).
(§2) Compounds of the invention were assayed against the select kinases using the KinaseGLO assay (MELK) or the radiometric assay (PIM, TRKC, PDGFRα(D842V), MNK1 and mTOR). IC50 values were determined using 8-10 point half-log dose dilutions and calculated via nonlinear regression analysis using Graphpad Prism data analysis software.

PIM-1 = PIM-1 (Homo sapiens, UniProt P11309); experiment: Radiometric HotSpot kinase assay, PIM-1; assay type: biochemical; settings: 1 μM compound, 10 μM ATP
Experimental: as §1, §2

[1] = tested on: p-AKT(S473) in IGF-1-stimulated A549 cells; experiment: In-cell western blot (cytoblot) of AKT phosphorylation, IGF-1-stimulated A549; assay type: cell-based; settings: Homo sapiens, read-out: IC50 against the p-AKT(S473) phosphorylation site
Experimental: (§3) Compound Preparation: Cell-based assays: 1000× stocks of inhibitors were prepared in DMSO. A 10 mM master stock was prepared and all other stocks were generated by serial dilution of the master stock in DMSO. The final concentration of DMSO in cell-based assays was 0.1% (v/v).
In-cell western blot (cytoblot) mechanistic assay; Measurement of AKT phosphorylation: The in-cell western blot assay is a quantitative 96-well immunocytochemistry assay using fixed cells. Phosphorylated AKT is detected and quantified via either enhanced chemiluminescence (ECL) or near infra-red (LI-COR) methods. Log-phase cells (10,000 A549, RKO or 30,000 U-87 MG) were plated in collagen coated, 96 well plates (Nunc) in 200 μL of growth medium (10% FBS/DMEM) and allowed to attach overnight at 37° C. in 5% CO2 incubator. Black 96 well plates were used for ECL assays. White, clear bottomed 96 well plates were used for LI-COR assays. The following day the growth medium was removed. For experiments using U-87 MG cells and RKO cells, the growth medium was replaced with 200 μL of fresh growth medium containing inhibitors dissolved in DMSO. PI3K inhibitors were dosed using half-log dilutions to generate an eight-point dose-response curve from 0.0 μM-10 μM for EC50 determinations, and the final concentration of DMSO in the test wells was 0.1% (v/v). The inhibitor treated cells were then incubated for 1 hour at 37° C. […]
After the inhibitor incubation phase (with or without IGF-1 stimulation), the medium was aspirated, the cells washed once with Tris-Buffered Saline (TBS) and then fixed in the wells by addition of 200 μL of cold 3.7% (v/v) formaldehyde diluted in TBS to test wells and incubated for 15 minutes at 4° C. […] The wells were then was washed four times with ice-cold TBS-T. Phospho-AKT luminescent signal was detected after a 1 minute incubation of test wells with 100 μL of ECL reagent using a SpectraMax M5 luminometer. (ii) Near-infrared fluorescence detection (LI-COR): After removal of the methanol, wells were blocked with 200 μL of LI-COR blocking buffer for 1 hour at room temperature. […]

U-87 MG cells = experiment: CellTiter-GLO cell proliferation assay, U-87 MG; assay type: cell-based; settings: Homo sapiens, preliminary experiments, no unit printed with the values (paragraph speaks of nM), read-out: mean concentration for 50% inhibition of U-87 MG cell proliferation
Experimental: as §3
CellTiter-GLO® Cell Proliferation Assay: CellTiter-GLO® (Promega) quantifies cell number as a measure of the ATP in a cell culture. 1,000-10,000 human tumor cells (of multiple histotypes) were plated in 100 μL of growth medium (10% (v/v) FBS in DMEM) in white, collagen coated 96-well plates (Biocoat) and allowed to adhere overnight at 37° C. in a 5% CO2 incubator. All test inhibitors were prepared in DMSO. For EC50 determinations, 1000× inhibitor stocks were prepared from a 10 mM master stock by serial dilution in DMSO and subsequently diluted in fresh growth medium to the desired inhibitor concentration. The growth medium was removed by aspiration and replaced with fresh medium containing inhibitors. […]
After 72 hours, the plates were removed from the incubator and equilibrated to room temperature for 30 minutes. […] Plates were incubated in the dark for 10 minutes at room temperature before reading luminescence on a SpectraMax M5 luminometer. Results are expressed as % inhibition relative to control cells (DMSO only). EC50 values were calculated via non-linear regression using GraphPad Prism data analysis software.

TRKC, sequence (Q16288 32-839): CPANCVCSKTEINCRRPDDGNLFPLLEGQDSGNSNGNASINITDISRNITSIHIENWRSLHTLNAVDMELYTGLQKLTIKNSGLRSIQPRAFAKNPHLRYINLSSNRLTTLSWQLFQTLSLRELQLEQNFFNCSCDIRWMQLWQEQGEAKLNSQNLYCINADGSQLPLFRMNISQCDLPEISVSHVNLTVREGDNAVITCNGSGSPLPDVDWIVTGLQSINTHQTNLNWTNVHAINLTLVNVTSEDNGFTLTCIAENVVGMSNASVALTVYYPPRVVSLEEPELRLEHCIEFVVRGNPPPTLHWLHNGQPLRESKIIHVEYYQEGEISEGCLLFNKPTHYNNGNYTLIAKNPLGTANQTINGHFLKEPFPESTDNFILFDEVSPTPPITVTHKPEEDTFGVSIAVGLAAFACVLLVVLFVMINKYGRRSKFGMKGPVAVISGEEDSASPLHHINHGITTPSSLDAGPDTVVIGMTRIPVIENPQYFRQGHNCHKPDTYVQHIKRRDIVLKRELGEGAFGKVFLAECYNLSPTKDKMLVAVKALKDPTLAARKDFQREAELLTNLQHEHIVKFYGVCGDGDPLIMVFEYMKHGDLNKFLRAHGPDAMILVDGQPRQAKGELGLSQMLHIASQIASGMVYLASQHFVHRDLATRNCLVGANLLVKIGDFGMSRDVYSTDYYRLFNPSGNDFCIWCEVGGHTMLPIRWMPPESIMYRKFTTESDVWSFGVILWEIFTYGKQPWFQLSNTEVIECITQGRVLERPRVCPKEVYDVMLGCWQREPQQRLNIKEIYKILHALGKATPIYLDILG
PIM-1, sequence (P11309 whole entry): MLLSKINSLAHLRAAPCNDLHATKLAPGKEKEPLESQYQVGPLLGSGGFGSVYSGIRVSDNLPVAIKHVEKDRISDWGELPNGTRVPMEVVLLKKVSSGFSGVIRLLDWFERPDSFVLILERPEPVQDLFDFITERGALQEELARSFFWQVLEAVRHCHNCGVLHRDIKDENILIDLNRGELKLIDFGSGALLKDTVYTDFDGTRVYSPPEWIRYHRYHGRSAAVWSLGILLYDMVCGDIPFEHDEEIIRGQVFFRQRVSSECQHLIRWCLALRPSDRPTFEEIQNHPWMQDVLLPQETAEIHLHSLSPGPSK

inhibition at 1 µM (TRKC) [%]	inhibition at 1 µM (PIM-1) [%]	IC50 [1] [nM]	IC50 (U-87 MG cells) [nM]	Structure (SMILES)
> 80	60 to 85	210	–	CC(C)(C#N)c1ccc(-c2n[nH]c3cnc4ccc(-c5ccc6ncccc6c5)cc4c23)cc1 [Compound 1110, 2-methyl-2-(4-(8-(quinolin-6-yl)-3H-pyrazolo[3,4-c]quinolin-1-yl)phenyl)propanenitrile]
–	–	43	295	CC(C)(C#N)c1ccc(-c2n[nH]c3cnc4ccc(-c5cnc6ccccc6c5)cc4c23)cc1 [Compound 1078, 2-methyl-2-(4-(8-(quinolin-3-yl)-3H-pyrazolo[3,4-c]quinolin-1-yl)phenyl)propanenitrile]
> 97	85 to 95	189	470	CC(C)(C#N)c1ccc(-c2n[nH]c3cnc4ccc(-c5cccnc5)cc4c23)cc1 [Compound 1107, 2-methyl-2-(4-(8-(pyridin-3-yl)-3H-pyrazolo[3,4-c]quinolin-1-yl)phenyl)propanenitrile]
